Assays:
[1] = test system: cytoplasmic phospholipases (cPLA2); experiment: cPLA2 activity in lung epithelial cells (commercial kit); format: cell-based, human
Procedure: FIG. 1 is a graph showing the effect of fenretinide and Zn^2+ treatment on the activity of cytoplasmic phospholipases (cPLA2). Lung epithelial cells were treated with 1.25 μM fenretinide (Fen) and/or 12.5 μM zinc sulfate (Zn^2+) for 12, 24, 48 or 72 hours and the activity of PLA2 was assessed using a commercially available ELISA kit (Abcam, cat. No. ab133090). All statistical analyses were performed using GraphPad™ software (GraphPad, San Diego, Calif., USA). Statistical significance of differences was evaluated using unpaired t-test with Welch's correction. Data are represented as means±SD (*p 0.05, **p 0.01, ***p 0.001, ****p 0.0001). All experiments were done in triplicates (n=3).
The effect of fenretinide (Fen) and/or zinc (Zn^2+) ions on the lipid metabolism in human airway epithelial cells was assessed the modulation of cytoplasmic phospholipases (cPLA2) activity. cPLA2 activity, as evaluated by colorimetric assay, was decreased following fenretinide treatment in a time dependent fashion, starting 24h after treatment (FIG. 1).

[2] = test system: airway epithelial cells overexpressing the delF508 mutated form of CFTR (delF508/delF508); experiment: DHA and AA fatty acid levels in airway epithelial cells overexpressing delF508 CFTR; format: cell-based, human; conditions: 72h, relative to untreated cells; for DHA levels: 1.25 μM fenretinide and/or 12.5 μM zinc sulfate
Procedure: FIGS. 2A-C are graphs showing the effect of fenretinide, Zn^2+ treatment on the level of DHA (FIG. 2A), AA (FIG. 2B) and their ratio (FIG. 2C) in lung epithelial cells overexpressing a mutant form of CFTR (CFTR-delF508) or native CFTR (wt CFTR). Lung epithelial cells grown as 80% confluent monolayer of were treated for 72h with 1.25 μM fenretinide and/or 12.5 μM zinc sulfate. The levels of AA and DHA were assessed as previously described in Guilbault et al. 2008, 2009. All statistical analyses were performed using GraphPad™ software (GraphPad, San Diego, Calif., USA). Statistical significance of differences was evaluated using unpaired t-test with Welch's correction. Data are represented as means±SD (*p≤0.05, **p≤0.01, ***p≤0.001, ****p≤0.0001). All experiments were done in triplicates (n=3).
It was next assessed whether fenretinide and zinc modulate the levels of omega-3 (docosahexaenoic acid, DHA) and omega-6 (arachidonic acid, AA) fatty acids in airway epithelial cells overexpressing the delF508 mutated form of CFTR (delF508/delF508) or native CFTR (wt CFTR). […] For AA levels, all treatments led to a significant decrease in AA levels in delF508 CFTR-expressing cells (relative to untreated cells), but not in native CFTR-expressing cells.

GFP-wt-CFTR = experiment: Image Correlation Spectroscopy of GFP-wt-CFTR aggregation at the plasma membrane; format: cell-based, human; conditions: for CFTR clustering / platforms (degree of aggregation) at the plasma membrane: primary human bronchial epithelial cells, fenretinide 1.25 μM 24 h pretreatment, Thaps 2 μM 10-20 min
Procedure: FIGS. 3A-E are confocal images of GFP-wt-CFTR expressed at the plasma membrane of pHBE cells under control conditions (Ctr) (FIG. 3A); after 10-20 min treatment with 2 μM Thapsigargin (FIG. 3B); after treatment with 1.25 μM Fenretinide (FIG. 3C); after treatment with 1.25 μM Fenretinide and Thapsigargin (same conditions as above) (FIG. 3D); or after treatment with 1.25 μM Fenretinide+Thapsigargin (same conditions as above)+Amitriptyline (13 μM for 40 min) (FIG. 3E).
FIG. 3F is a graph showing the quantification of CFTR aggregation and accumulation at the cell surface under control conditions (Ctr), after treatment with Thapsigargin (Thaps), after treatment with Fenretinide (Fen), and after treatment with Fenretinide and Thapsigargin (Fen+Thaps).
It was next tested whether fenretinide and/or zinc could have an effect on the ability of native CFTR-expressing epithelial cells to transport chloride. CFTR is known to become localized in relatively stable platforms during viral infection (Abu-Arish et al., 2015). The formation of such platforms expressing CFTR was measured following treatment with fenretinide. The Image Correlation Spectroscopy technique was used to measure the degree of aggregation of GFP-wt-CFTR at the plasma membrane of primary human bronchial epithelial cells. The degree of aggregation is proportional to the mean number of CFTR channels per cluster or platform. Confocal images of CFTR at the plasma membrane were collected for analysis under control (Ctr), thapsigargin (Thaps), fenretinide (Fen) or a combination of Fen+Thaps. Cells were pretreated or not with fenretinide at 1.25 μM for 24 h before imaging whereas Thaps (2 μM) exposures were acute (10-20 min).

F508del-CFTR = target: T1, F508del-CFTR (Homo sapiens, UniProt P13569, DEL508-508); experiment: Ussing chamber F508del-CFTR conductance across basally permeabilized polarized cells; format: cell-based; conditions: 1.25 μM Fen alone for 3 days, 1 μM VX-809 last 24h
T1 construct: host or cells: polarized bronchial epithelial cells
Procedure: FIG. 5 is a graph showing the effect of Zinc and/or Fenretinide treatment on F508del-CFTR function after partial rescue by VX-809 (809) in the absence and presence of 50 μM of the potentiator genistein (acts similarly to VX770). Ussing Chambers were used to measure F508del-CFTR conductance by measuring the short-circuit current across basally permeabilized polarized cells in response to forskolin (FSK) or forskolin+genistein (FSK+Gen). Treatment: Cells were treated basally or not with 1.25 μM fenretinide (Fen) or the combination a combination of 1.25 μM Fenretinide and 12.5 μM Zinc (FenZn) for 3 days. 1 μM VX-809 was added bilaterally during the last 24h. Unpaired student t-test was used for statistical analysis.
FIG. 6 is a graph showing the effect of Zinc and/or Fenretinide treatment on F508del-CFTR mediated secretion in the absence of VX-809. Ussing Chambers were used to measure F508del-CFTR functional expression as short-circuit current across polarized and basally permeabilized bronchial epithelial cells in response to forskolin (FSK) or forskolin+genistein (FSK+Gen). Cells were treated basally or not with 1.25 μM Fenretinide (Fen) and/or 12.5 μM Zinc (Zn) for 3 days. […]

T1 sequence (P13569 with tags, fused parts or gaps DEL508-508): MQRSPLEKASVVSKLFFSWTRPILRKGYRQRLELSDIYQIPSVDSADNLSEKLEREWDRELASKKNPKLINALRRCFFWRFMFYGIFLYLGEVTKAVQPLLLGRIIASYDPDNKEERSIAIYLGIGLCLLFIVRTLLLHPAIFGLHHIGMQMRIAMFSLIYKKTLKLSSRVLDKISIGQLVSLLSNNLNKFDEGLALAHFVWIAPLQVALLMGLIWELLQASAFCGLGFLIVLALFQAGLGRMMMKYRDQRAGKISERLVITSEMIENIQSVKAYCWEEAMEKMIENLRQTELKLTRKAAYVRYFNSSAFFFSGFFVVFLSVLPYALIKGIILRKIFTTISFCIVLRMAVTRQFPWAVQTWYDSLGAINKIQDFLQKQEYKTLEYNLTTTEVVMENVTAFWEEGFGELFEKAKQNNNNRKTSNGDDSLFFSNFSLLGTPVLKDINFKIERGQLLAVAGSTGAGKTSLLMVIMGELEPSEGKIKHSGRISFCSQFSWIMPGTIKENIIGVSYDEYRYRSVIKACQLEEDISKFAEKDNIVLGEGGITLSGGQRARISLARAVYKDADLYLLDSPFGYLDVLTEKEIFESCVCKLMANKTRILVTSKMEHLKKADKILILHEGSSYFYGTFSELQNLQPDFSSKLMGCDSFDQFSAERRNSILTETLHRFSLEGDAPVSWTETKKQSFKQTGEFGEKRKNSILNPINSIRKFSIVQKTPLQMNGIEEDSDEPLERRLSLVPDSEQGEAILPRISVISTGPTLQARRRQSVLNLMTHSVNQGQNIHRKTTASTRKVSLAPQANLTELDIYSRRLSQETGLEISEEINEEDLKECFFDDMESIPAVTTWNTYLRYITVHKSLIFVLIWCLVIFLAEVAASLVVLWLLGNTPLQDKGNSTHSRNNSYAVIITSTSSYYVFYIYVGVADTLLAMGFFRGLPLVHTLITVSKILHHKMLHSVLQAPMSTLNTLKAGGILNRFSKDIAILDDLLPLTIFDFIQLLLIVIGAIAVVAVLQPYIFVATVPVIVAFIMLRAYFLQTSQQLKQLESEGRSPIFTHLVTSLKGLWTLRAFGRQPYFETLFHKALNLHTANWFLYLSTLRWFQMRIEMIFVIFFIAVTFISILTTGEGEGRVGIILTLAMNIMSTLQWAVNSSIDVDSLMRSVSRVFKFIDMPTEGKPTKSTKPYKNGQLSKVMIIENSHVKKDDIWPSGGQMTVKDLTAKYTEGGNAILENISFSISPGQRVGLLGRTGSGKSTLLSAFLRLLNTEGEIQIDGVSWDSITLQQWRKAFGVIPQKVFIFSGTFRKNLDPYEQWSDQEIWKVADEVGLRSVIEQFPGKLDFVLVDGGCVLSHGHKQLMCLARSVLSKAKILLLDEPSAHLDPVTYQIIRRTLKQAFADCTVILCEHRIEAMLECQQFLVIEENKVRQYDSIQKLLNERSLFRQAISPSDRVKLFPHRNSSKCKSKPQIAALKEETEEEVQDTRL

| Compound | DHA levels [2] | DHA/AA ratio [2] | CFTR clustering / platforms (degree of aggregation) at the plasma membrane (GFP-wt-CFTR) | other results |
| --- | --- | --- | --- | --- |
| zinc sulfate | significant increase | significant increase | – | cPLA2 activity ([1]; 12.5 μM zinc sulfate in the absence of fenretinide, 72h): significantly increase; cPLA2 activity, effect of zinc added to fenretinide ([1]; 12.5 μM zinc sulfate with 1.25 μM fenretinide, 24h and 48h): potentiate the effect of fenretinide |
| C/C=C(/C)C(=O)O[C@H]1C(C)=C2[C@H]([C@@H]1OC(=O)CCCCCCC)[C@@](C)(OC(C)=O)C[C@H](OC(=O)CCC)[C@@]1(O)[C@H]2OC(=O)[C@@]1(C)O [thapsigargin] | – | – | induces some CFTR platforms | – |
| CN(C)CCC=C1c2ccccc2CCc2ccccc21 [Amitriptyline] | – | – | – | Induction of CFTR platform formation by fenretinide+thapsigargin (GFP-wt-CFTR; in the presence of Amitriptyline 13 μM for 40 min): inhibited |
| CC1=C(/C=C/C(C)=C/C=C/C(C)=C/C(=O)Nc2ccc(O)cc2)C(C)(C)CCC1 [fenretinide, all-trans-N-(4-hydroxyphenyl) retinamide] | significant increase | significant increase | did not affect CFTR clustering | cPLA2 activity ([1]; 1.25 μM fenretinide, 12, 24, 48 or 72 hours): decreased; F508del-CFTR channel function (F508del-CFTR): significant increase |

Source: patent US11510945B2, “Compositions and methods for enhancing ion transporter activity and uses thereof” (THE ROYAL INSTITUTION FOR THE ADVANCEMENT OF …, priority 2018, dated 2022)
